According to patent US11446287B2, “Compounds and methods for EP300 or CBP modulation and indications therefor” (Opna Immuno-Oncology SA, priority 2019, dated 2022):

Biological target: T1, Recombinant human BRD4 containing dual bromodomains (BRD4-BD12 (1-477)) (Homo sapiens, UniProt O60885)
T1 construct: Recombinant human BRD4 containing dual bromodomains (BRD4-BD12 (1-477)); made in house; host or cells: E. coli BL21-CodonPlus (DE3), modified pET vector
Assay: BRD4 Alphascreen binding assay
Outline: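 AlphaScreen proximity between Ni-chelate-bound BRD4-BD12 (1-477) and streptavidin-captured H4 K5/K8/K12/K16-acetyl peptide measured after 1 h room-temperature compound incubation and 30 min with 7.5 μg/ml beads. Buffer: 50 mM HEPES pH 7.5, 50 mM NaCl, 0.01% BSA, 0.01% Triton X-100; data plate-normalized and four-parameter fit for IC50.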

Compound	IC50
Cc1noc(C)c1-c1cnc2c(c1)c(-c1cccc(C(=O)O)c1)cn2CC1CC1 [P-0050, 3-(1-(cyclopropylmethyl)-5-(3,5-dimethylisoxazol-4-yl)-1H-pyrrolo[2,3-b]pyridin-3-yl)benzoic acid]	8 to 1000 µM
Cc1noc(C)c1-c1cnc2c(c1)c(-c1ccnc(C(=O)O)c1C)cn2C(C1CC1)C1CC1 [P-0418, 4-(1-(dicyclopropylmethyl)-5-(3,5-dimethylisoxazol-4-yl)-1H-pyrrolo[2,3-b]pyridin-3-yl)-3-methylpicolinic acid]	0.0001 to 1 µM
Cc1noc(C)c1-c1cnc2c(c1)c(-c1c(Cl)cc(C(=O)O)cc1OC1CCC1)cn2-c1cnc(C2CC2)nc1 [P-0391, 3-chloro-5-cyclobutoxy-4-(1-(2-cyclopropylpyrimidin-5-yl)-5-(3,5-dimethylisoxazol-4-yl)-1H-pyrrolo[2,3-b]pyridin-3-yl)benzoic acid]	1 to 8 µM
CCOc1cc(C(=O)O)nc(OCC)c1-c1cn(C2CCC(F)(F)CC2)c2ncc(-c3c(C)noc3C)cc12 [P-0425, 5-(1-(4,4-difluorocyclohexyl)-5-(3,5-dimethylisoxazol-4-yl)-1H-pyrrolo[2,3-b]pyridin-3-yl)-4,6-diethoxypicolinic acid]	8 to 1000 µM
CCOc1cc(C(=O)O)nc(OCC)c1-c1cn(-c2ccccc2F)c2ncc(-c3c(C)noc3C)cc12 [P-0414, 5-(5-(3,5-dimethylisoxazol-4-yl)-1-(2-fluorophenyl)-1H-pyrrolo[2,3-b]pyridin-3-yl)-4,6-diethoxypicolinic acid]	1 to 8 µM
CCOc1cc(C(=O)O)nc(OCC)c1-c1cn(-c2cn(C(F)F)nc2C)c2ncc(-c3c(C)noc3C)cc12 [P-0429, 5-(1-(1-(difluoromethyl)-3-methyl-1H-pyrazol-4-yl)-5-(3,5-dimethylisoxazol-4-yl)-1H-pyrrolo[2,3-b]pyridin-3-yl)-4,6-diethoxypicolinic acid]	8 to 1000 µM
CCOc1cc(C(=O)O)c(F)cc1-c1cn(C2CCN(C(=O)CO)CC2)c2ncc(-c3c(C)noc3C)cc12 [P-0447, 4-(5-(3,5-dimethylisoxazol-4-yl)-1-(1-(2-hydroxyacetyl)piperidin-4-yl)-1H-pyrrolo[2,3-b]pyridin-3-yl)-5-ethoxy-2-fluorobenzoic acid]	8 to 1000 µM
CCOc1cc(C(=O)O)nc(OCC)c1-c1cn(-c2cccnc2)c2ncc(-c3c(C)noc3C)cc12 [P-0436, 5-(5-(3,5-dimethylisoxazol-4-yl)-1-(pyridin-3-yl)-1H-pyrrolo[2,3-b]pyridin-3-yl)-4,6-diethoxypicolinic acid]	1 to 8 µM
CCOc1cc(C(=O)O)c(F)cc1-c1cn(C2CCN(C(=O)C(C)(C)C)CC2)c2ncc(-c3c(C)noc3C)cc12 [P-0445, 4-(5-(3,5-dimethylisoxazol-4-yl)-1-(1-pivaloylpiperidin-4-yl)-1H-pyrrolo[2,3-b]pyridin-3-yl)-5-ethoxy-2-fluorobenzoic acid]	8 to 1000 µM
CCOc1cc(C(=O)O)nc(OCC)c1-c1cn(C2CCN(S(C)(=O)=O)CC2)c2ncc(-c3c(C)noc3C)cc12 [P-0435, 5-(5-(3,5-dimethylisoxazol-4-yl)-1-(1-(methylsulfonyl)piperidin-4-yl)-1H-pyrrolo[2,3-b]pyridin-3-yl)-4,6-diethoxypicolinic acid]	8 to 1000 µM
Cc1noc(C)c1-c1cnc2c(c1)c(-c1ccnc(C(=O)O)c1)cn2Cc1ccccn1 [P-0044, 4-(5-(3,5-dimethylisoxazol-4-yl)-1-(pyridin-2-ylmethyl)-1H-pyrrolo[2,3-b]pyridin-3-yl)picolinic acid]	0.0001 to 1 µM
CCOc1cc(C(=O)O)nc(OCC)c1-c1cn([C@@H](C)c2ccccn2)c2ncc(-c3c(C)noc3C)cc12 [P-0415, (S)-5-(5-(3,5-dimethylisoxazol-4-yl)-1-(1-(pyridin-2-yl)ethyl)-1H-pyrrolo[2,3-b]pyridin-3-yl)-4,6-diethoxypicolinic acid]	8 to 1000 µM
Cc1noc(C)c1-c1cnc2c(c1)c(-c1c(F)cc(C(=O)O)cc1OC1CCC1)cn2C1CCOCC1 [P-0410, 3-cyclobutoxy-4-(5-(3,5-dimethylisoxazol-4-yl)-1-(tetrahydro-2H-pyran-4-yl)-1H-pyrrolo[2,3-b]pyridin-3-yl)-5-fluorobenzoic acid]	8 to 1000 µM
CCOc1cc(C(=O)O)ncc1-c1cn(C2CCOCC2)c2ncc(-c3c(C)noc3C)cc12 [P-0428, 5-(5-(3,5-dimethylisoxazol-4-yl)-1-(tetrahydro-2H-pyran-4-yl)-1H-pyrrolo[2,3-b]pyridin-3-yl)-4-ethoxypicolinic acid]	0.0001 to 1 µM
Cc1noc(C)c1-c1cnc2c(c1)c(-c1c(Cl)cc(C(=O)O)cc1OC(F)(F)F)cn2-c1cccnn1 [P-0439, 3-chloro-4-(5-(3,5-dimethylisoxazol-4-yl)-1-(pyridazin-3-yl)-1H-pyrrolo[2,3-b]pyridin-3-yl)-5-(trifluoromethoxy)benzoic acid]	0.0001 to 1 µM
CCOc1nc(C(=O)O)ccc1-c1cn(C2(C)CCOCC2)c2ncc(-c3c(C)noc3C)cc12 [P-0405, 5-(5-(3,5-dimethylisoxazol-4-yl)-1-(4-methyltetrahydro-2H-pyran-4-yl)-1H-pyrrolo[2,3-b]pyridin-3-yl)-6-ethoxypicolinic acid]	1 to 8 µM

Compound	IC50
Cc1noc(C)c1-c1cnc2c(c1)c(C#CC(C)(C)C(=O)O)cn2Cc1ccccc1 [P-0051, 4-(1-benzyl-5-(3,5-dimethylisoxazol-4-yl)-1H-pyrrolo[2,3-b]pyridin-3-yl)-2,2-dimethylbut-3-ynoic acid]	8 to 1000 µM
Cc1noc(C)c1-c1cnc2c(c1)c(-c1ccc(C(=O)O)cc1OC(C)C)cn2C1(C)CCOC1 (centres unmarked) [P-0407, 4-(5-(3,5-dimethylisoxazol-4-yl)-1-(3-methyltetrahydrofuran-3-yl)-1H-pyrrolo[2,3-b]pyridin-3-yl)-3-isopropoxybenzoic acid]	8 to 1000 µM
Cc1noc(C)c1-c1cnc2c(c1)c(-c1ccnc(C(=O)O)c1)cn2Cc1ccccc1 [P-0042, 4-(1-benzyl-5-(3,5-dimethylisoxazol-4-yl)-1H-pyrrolo[2,3-b]pyridin-3-yl)picolinic acid]	0.0001 to 1 µM
COC(=O)c1cc(Cl)c(-c2cn(-c3ccc(C4CC4)nc3)c3ncc(-c4c(C)noc4C)cc23)c(OC(F)(F)F)c1 [P-0440, methyl 3-chloro-4-(1-(6-cyclopropylpyridin-3-yl)-5-(3,5-dimethylisoxazol-4-yl)-1H-pyrrolo[2,3-b]pyridin-3-yl)-5-(trifluoromethoxy)benzoate]	8 to 1000 µM
Cc1noc(C)c1-c1cnc2c(Cc3ccccc3)cn(-c3ccnc(C(=O)O)c3)c2c1 [P-0053, 4-(3-benzyl-6-(3,5-dimethylisoxazol-4-yl)-1H-pyrrolo[3,2-b]pyridin-1-yl)picolinic acid]	1 to 8 µM
CCOc1cc(C(=O)O)ncc1-c1cn(C(C2CC2)C2CC2)c2ncc(-c3c(C)noc3C)cc12 [P-0427, 5-(1-(dicyclopropylmethyl)-5-(3,5-dimethylisoxazol-4-yl)-1H-pyrrolo[2,3-b]pyridin-3-yl)-4-ethoxypicolinic acid]	1 to 8 µM
CCOc1nc(C(=O)O)c(C)cc1-c1cn(C(C2CC2)C2CC2)c2ncc(-c3c(C)noc3C)cc12 [P-0416, 5-(1-(dicyclopropylmethyl)-5-(3,5-dimethylisoxazol-4-yl)-1H-pyrrolo[2,3-b]pyridin-3-yl)-6-ethoxy-3-methylpicolinic acid]	8 to 1000 µM
Cc1noc(C)c1-c1cnc2c(c1)c(-c1ccnc(C(=O)O)c1C)cn2C1CCOCC1 [P-0419, 4-(5-(3,5-dimethylisoxazol-4-yl)-1-(tetrahydro-2H-pyran-4-yl)-1H-pyrrolo[2,3-b]pyridin-3-yl)-3-methylpicolinic acid]	0.0001 to 1 µM
COc1ccc(CC(=O)O)cc1-c1cn(-c2ccc(F)cc2F)c2ncc(-c3c(C)noc3C)cc12 [P-0443, 2-(3-(1-(2,4-difluorophenyl)-5-(3,5-dimethylisoxazol-4-yl)-1H-pyrrolo[2,3-b]pyridin-3-yl)-4-methoxyphenyl)acetic acid]	1 to 8 µM
CCOc1cc(C(=O)O)nc(OCC)c1-c1cn(C(C2CC2)C2CC2)c2ncc(-c3c(C)noc3C)cc12 [P-0420, 5-(1-(dicyclopropylmethyl)-5-(3,5-dimethylisoxazol-4-yl)-1H-pyrrolo[2,3-b]pyridin-3-yl)-4,6-diethoxypicolinic acid]	8 to 1000 µM
Cc1noc(C)c1-c1cnc2c(c1)c(-c1ccc(CC(=O)O)cc1)cn2-c1ccc(F)cc1F [P-0438, 2-(4-(1-(2,4-difluorophenyl)-5-(3,5-dimethylisoxazol-4-yl)-1H-pyrrolo[2,3-b]pyridin-3-yl)phenyl)acetic acid]	8 to 1000 µM
Cc1noc(C)c1-c1cnc2c(c1)c(-c1ccnc(C(=O)O)c1)cn2C(c1ccccn1)C1CCC1 (centres unmarked) [P-0043, 4-(1-(cyclobutyl(pyridin-2-yl)methyl)-5-(3,5-dimethylisoxazol-4-yl)-1H-pyrrolo[2,3-b]pyridin-3-yl)picolinic acid]	1 to 8 µM
Cc1noc(C)c1-c1cnc2c(C(=O)c3ccccc3)cn(-c3ccnc(C(=O)O)c3)c2c1 [P-0054, 4-(3-benzoyl-6-(3,5-dimethylisoxazol-4-yl)-1H-pyrrolo[3,2-b]pyridin-1-yl)picolinic acid]	0.0001 to 1 µM
Cc1noc(C)c1-c1cnc2c(c1)c(-c1ccc(C(=O)O)c(Cl)c1)cn2C(c1ccccn1)C1CCCC1 (centres unmarked) [P-0038, 2-chloro-4-(1-(cyclopentyl(pyridin-2-yl)methyl)-5-(3,5-dimethylisoxazol-4-yl)-1H-pyrrolo[2,3-b]pyridin-3-yl)benzoic acid]	1 to 8 µM
COc1cc(C(=O)O)ccc1-c1cn([C@@H](C)c2ccccn2)c2ncc(-c3c(C)noc3C)cc12 [P-0047, (S)-4-(5-(3,5-dimethylisoxazol-4-yl)-1-(1-(pyridin-2-yl)ethyl)-1H-pyrrolo[2,3-b]pyridin-3-yl)-3-methoxybenzoic acid]	1 to 8 µM
Cc1noc(C)c1-c1cnc2c(c1)c(-c1c(Cl)cc(C(=O)O)cc1OCC(F)F)cn2-c1cnc(C2CC2)nc1 [P-0390, 3-chloro-4-(1-(2-cyclopropylpyrimidin-5-yl)-5-(3,5-dimethylisoxazol-4-yl)-1H-pyrrolo[2,3-b]pyridin-3-yl)-5-(2,2-difluoroethoxy)benzoic acid]	1 to 8 µM
